Test results from patent US20250120989A1, “BRIDGED TRICYCLIC CARBAMOYLPYRIDONE COMPOUNDS AND USES THEREOF” (priority 2023, published 2025).
≈ marks a conversion by molar mass, not a printed value.

Assays:
[1] = Dog PO pharmacokinetic studies with P-gp inhibitor encequidar mesylate (Example E); format: in vivo, beagle dog; conditions: for AUCinf, CMAX and oral bioavailability when administered with encequidar mesylate versus without / AUC(0-inf) / Cmax / bioavailability: dosed compound measured; for AUCinf, CMAX and oral bioavailability when administered with encequidar mesylate versus without: Table 5 versus Table 4, FIG. 1 and 2; for AUC(0-inf) / Cmax / bioavailability: male, beagle, plasma, dog PO 4 mg/kg, encequidar mesylate 5 mg-eq/kg PO about 30 min before
Protocol: Three male beagle dogs were fasted overnight. […] Individual doses were calculated based on body weights recorded on the day of dose administration. […] This was followed by an additional 20 mL of water administered via oral gavage. The total flush volume was approximately 30 mL. Individual doses were administered on a […]. In all cases, food was returned at approximately 4 hours after dosing. […] Bioanalysis was carried out according to Example C.

physchem = conditions: FaSSIF, 23 °C, thermodynamic from solid
HIV-1 (IIIB) = assay: microbe, parasite or virus in culture; format: cell-based; conditions: Human immunodeficiency virus 1, MT4, 120 h; HIV-1 (IIIB) replication in MT-4 cells, 5 days, Cell Titer Glo; read-out: MT4 EC50
in vitro = conditions: human, uninfected MT-4 cells

Question: With `CC1=NO[C@@]2(CC[C@H](C)N3C[C@H]2n2cc(C(=O)NCc4ccc(F)cc4F)c(=O)c(O)c2C3=O)C1` [Intermediate B, (3′S,5S,7′R)—N-(2,4-difluorobenzyl)-12′-hydroxy-3,3′-dimethyl-1′,11′-dioxo-1′,4′,5′,11′-tetrahydro-3′H,4H,7′H-spiro[isoxazole-5,6′-[2,7]methanopyrido[1,2-a][1,4]diazonine]-10′-carboxamide] as the compound, how does the “AUCinf, CMAX and oral bioavailability when administered with encequidar mesylate versus without” value ([1]; dog PO) read?
Answer: increased

Question: And the AUC(0-inf) [1]?
Answer: 3980 ± 762 µM·h

Question: And the Cmax [1]?
Answer: 80.8 ± 4.9 µM

Question: What about the bioavailability [1] of the same compound?
Answer: 70.3 ± 1.8%

Question: And the solubility thermodynamic at 24 h (physchem)?
Answer: 2 µg/mL (≈ 0.00411 mM)

Question: What does the source list for `COC1=NO[C@@]2(CC[C@H](C)N3C[C@H]2n2cc(C(=O)NCc4ccc(F)cc4F)c(=O)c(O)c2C3=O)C1` [Intermediate C, (3′S,5S,7′R)—N-(2,4-difluorobenzyl)-12′-hydroxy-3-methoxy-3′-methyl-1′,11′-dioxo-1′,4′,5′,11′-tetrahydro-3′H,4H,7′H-spiro[isoxazole-5,6′-[2,7]methanopyrido[1,2-a][1,4]diazonine]-10′-carboxamide]?
Answer: AUCinf, CMAX and oral bioavailability when administered with encequidar mesylate versus without ([1]; dog PO): increased; AUC(0-inf) [1]: 2300 ± 171 µM·h; Cmax [1]: 62 ± 3.5 µM; bioavailability [1]: 82.3 ± 13.4%

Question: What does the source list for `COC1=NO[C@@]2(CC[C@H](C)N3C[C@H]2n2cc(C(=O)NCc4ccc(F)cc4F)c(=O)c(OCOC(=O)OCCOP(=O)(O)O)c2C3=O)C1` [Compound 3, (((3′S,5S,7′R)-10′-((2,4-difluorobenzyl)carbamoyl)-3-methoxy-3′-methyl-1′,11′-dioxo-1′,4′,5′,11′-tetrahydro-3′H,4H,7′H-spiro[isoxazole-5,6′-[2,7]methanopyrido[1,2-a][1,4]diazonin]-12′-yl)oxy)methyl (2-(phosphonooxy)ethyl) carbonate]?
Answer: AUCinf, CMAX and oral bioavailability of Intermediate C when prodrug is administered with encequidar mesylate versus without ([1]; dog PO, Intermediate C measured, Table 5 Entry 3 versus Table 4 Entry 3, FIG. 3): increased; EC50 (HIV-1 (IIIB)): 0.00046 µM; CC50 at 5 days (in vitro): 13 µM; solubility thermodynamic at 24 h (physchem): 6650 µg/mL (≈ 9.49 mM)

Question: Which EC50 (HIV-1 (IIIB)) does the source give for `CC1=NO[C@@]2(CC[C@H](C)N3C[C@H]2n2cc(C(=O)NCc4ccc(F)cc4F)c(=O)c(OCOC(=O)OCC(C)(C)CN(CC(=O)O)C(=O)OCOP(=O)(O)O)c2C3=O)C1` [Compound 37, N-(3-((((((3′S,5S,7′R)-10′-((2,4-difluorobenzyl)carbamoyl)-3,3′-dimethyl-1′,11′-dioxo-1′,4′,5′,11′-tetrahydro-3′H,4H,7′H-spiro[isoxazole-5,6′-[2,7]methanopyrido[1,2-a][1,4]diazonin]-12′-yl)oxy)methoxy)carbonyl)oxy)-2,2-dimethylpropyl)-N-(((phosphonooxy)methoxy)carbonyl)glycine] here?
Answer: 0.00149 µM

Question: What about the CC50 at 5 days (in vitro) of the same compound?
Answer: 11.1 µM

Question: What about the solubility thermodynamic at 24 h (physchem) of the same compound?
Answer: 4980 µg/mL (≈ 5.81 mM)

Question: Which EC50 (HIV-1 (IIIB)) does the source give for `CC1=NO[C@@]2(CC[C@H](C)N3C[C@H]2n2cc(C(=O)NCc4ccc(F)cc4F)c(=O)c(OCOC(=O)CC(C)(C)COP(=O)(O)O)c2C3=O)C1` [Compound 41, (((3′S,5S,7′R)-10′-((2,4-difluorobenzyl)carbamoyl)-3,3′-dimethyl-1′,11′-dioxo-1′,4′,5′,11′-tetrahydro-3′H,4H,7′H-spiro[isoxazole-5,6′-[2,7]methanopyrido[1,2-a][1,4]diazonin]-12′-yl)oxy)methyl 3,3-dimethyl-4-(phosphonooxy)butanoate] here?
Answer: 0.00309 µM

Question: And the CC50 at 5 days (in vitro)?
Answer: 44.3 µM

Question: And the solubility thermodynamic at 24 h (physchem)?
Answer: 5600 µg/mL (≈ 7.87 mM)

Question: What does the source list for `CC1=NO[C@@]2(CC[C@H](C)N3C[C@H]2n2cc(C(=O)NCc4ccc(F)cc4F)c(=O)c(OCOC(=O)OC[C@@H](C)OP(=O)(O)O)c2C3=O)C1` [Compound 22, (((3′S,5S,7′R)-10′-((2,4-difluorobenzyl)carbamoyl)-3,3′-dimethyl-1′,11′-dioxo-1′,4′,5′,11′-tetrahydro-3′H,4H,7′H-spiro[isoxazole-5,6′-[2,7]methanopyrido[1,2-a][1,4]diazonin]-12′-yl)oxy)methyl ((R)-2-(phosphonooxy)propyl) carbonate]?
Answer: EC50 (HIV-1 (IIIB)): 0.00193 µM; CC50 at 5 days (in vitro): 9.78 µM; solubility thermodynamic at 24 h (physchem): 4180 µg/mL (≈ 5.99 mM)
